Test results from patent US9096593B2, “Compounds and methods for kinase modulation, and indications therefor” (Plexxikon Inc., priority 2009, dated 2015).
Where two headings read alike, the source gives them in different places.

Legend:
Flt-3 kinase = Flt-3 kinase (Homo sapiens (Human), UniProt P36888); test: Flt-3 kinase biochemical activity assay (AlphaScreen, biotin-(E4Y)10 phosphorylation); conditions: 100 μM ATP
Experimental: In one assay the biochemical activity IC50 values are determined with respect to inhibition of Flt-3 kinase activity, where inhibition of phosphorylation of a peptide substrate is measured as a function of compound concentration. Compounds to be tested, dissolved in DMSO (1 μL), are added to a white 384-well plate (Costar #3705). Working stocks of Flt-3 kinase (Invitrogen), biotin-(E4Y)10 substrate (Upstate Biotech, Cat#12-440), and ATP (Sigma, Cat#A-3377) are prepared in 25 mM Hepes pH 7.5, 5 mM MgCl2, 5 mM MnCl2, 1 mM DTT, and 0.01% Tween-20. All components are added to the 384-well plate for a final concentration of 1 ng/well Flt-3, 30 nM biotin-(E4Y)10 and 100 μM ATP in a volume of 20 μL. Each sample is at 5% DMSO. The plate is then incubated for 1 hour at room temperature. Just before use, working stocks of donor and acceptor beads from the AlphaScreen PY20 Detection Kit (PerkinElmer, Cat#676601M) are prepared in 25 mM Hepes pH 7.5, pH 7.4, 100 mM EDTA. 0.3% BSA. To stop the reaction, the plate is uncovered in the dark and 5 μL of Donor Beads solution (Streptavidin beads) is added to each well. The plate is incubated at room temperature for 20 minutes. Five microliters of Acceptor Beads solution (PY20 coated beads) are then added to each well. The final concentration of each bead is 10 μg/mL. The plates are incubated at room temperature for 60 minutes. Fluorescence signal is recorded on the Envision reader. Phosphorylated substrate results in binding of the PY20 antibody and association of the donor and acceptor beads such that signal correlates with kinase activity. The signal vs. compound concentration is used to determine the IC50.

CYP1A2 = CYP1A2 (Homo sapiens (Human), UniProt P05177); test: CYP enzyme inhibition, fluorescent substrate
CYP2C19 = CYP2C19 (Homo sapiens (Human), UniProt P33261); test: CYP enzyme inhibition, fluorescent substrate
How it was run: (§1)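 […]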

CYP2C9 = CYP2C9 (Homo sapiens (Human), UniProt P11712); test: CYP enzyme inhibition, fluorescent substrate
How it was run: as §1

CYP2D6 = CYP2D6 (Homo sapiens (Human), UniProt P10635); test: CYP enzyme inhibition, fluorescent substrate
CYP3A4(BFC) = CYP3A4(BFC) (Homo sapiens (Human), UniProt P08684); test: CYP enzyme inhibition, fluorescent substrate
How it was run: as §1

CYP3A4(BQ) = CYP3A4(BQ) (Homo sapiens (Human), UniProt P08684); test: CYP enzyme inhibition, fluorescent substrate
How it was run: as §1

[1] = read-out: Cyp IC50 (μM) 3A4(BFC), BFC substrate
[2] = read-out: Cyp IC50 (μM) 3A4(BQ), BQ substrate

CYP1A2, sequence (P05177 whole entry): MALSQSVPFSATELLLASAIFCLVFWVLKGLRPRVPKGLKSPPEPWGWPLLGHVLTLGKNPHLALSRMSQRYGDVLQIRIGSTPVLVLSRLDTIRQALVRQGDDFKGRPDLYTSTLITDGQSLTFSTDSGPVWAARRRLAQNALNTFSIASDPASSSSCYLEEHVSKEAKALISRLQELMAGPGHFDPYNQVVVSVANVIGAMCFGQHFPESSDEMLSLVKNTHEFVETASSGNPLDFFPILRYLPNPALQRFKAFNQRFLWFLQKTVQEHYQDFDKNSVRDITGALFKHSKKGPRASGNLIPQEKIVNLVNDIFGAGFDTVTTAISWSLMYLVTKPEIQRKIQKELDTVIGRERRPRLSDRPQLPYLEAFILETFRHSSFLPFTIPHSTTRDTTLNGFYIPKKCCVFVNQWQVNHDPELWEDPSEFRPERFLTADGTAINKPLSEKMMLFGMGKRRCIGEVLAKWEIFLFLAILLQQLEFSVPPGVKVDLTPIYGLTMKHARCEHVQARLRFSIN
CYP3A4(BFC), sequence (P08684 whole entry): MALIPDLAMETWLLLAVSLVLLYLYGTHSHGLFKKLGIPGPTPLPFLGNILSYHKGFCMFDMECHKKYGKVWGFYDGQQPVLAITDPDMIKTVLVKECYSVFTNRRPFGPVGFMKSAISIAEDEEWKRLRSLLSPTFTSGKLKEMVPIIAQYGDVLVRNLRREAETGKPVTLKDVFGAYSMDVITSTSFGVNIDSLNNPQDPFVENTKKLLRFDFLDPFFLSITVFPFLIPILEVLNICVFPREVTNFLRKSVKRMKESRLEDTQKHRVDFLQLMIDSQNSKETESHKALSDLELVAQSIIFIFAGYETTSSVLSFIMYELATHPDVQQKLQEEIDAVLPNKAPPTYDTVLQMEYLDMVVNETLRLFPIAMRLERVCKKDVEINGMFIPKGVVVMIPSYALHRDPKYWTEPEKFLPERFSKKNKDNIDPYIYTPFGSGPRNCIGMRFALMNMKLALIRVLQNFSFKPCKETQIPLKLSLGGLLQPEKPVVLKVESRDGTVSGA
CYP3A4(BQ), sequence (P08684 whole entry): as above
CYP2C19, sequence (P33261 whole entry): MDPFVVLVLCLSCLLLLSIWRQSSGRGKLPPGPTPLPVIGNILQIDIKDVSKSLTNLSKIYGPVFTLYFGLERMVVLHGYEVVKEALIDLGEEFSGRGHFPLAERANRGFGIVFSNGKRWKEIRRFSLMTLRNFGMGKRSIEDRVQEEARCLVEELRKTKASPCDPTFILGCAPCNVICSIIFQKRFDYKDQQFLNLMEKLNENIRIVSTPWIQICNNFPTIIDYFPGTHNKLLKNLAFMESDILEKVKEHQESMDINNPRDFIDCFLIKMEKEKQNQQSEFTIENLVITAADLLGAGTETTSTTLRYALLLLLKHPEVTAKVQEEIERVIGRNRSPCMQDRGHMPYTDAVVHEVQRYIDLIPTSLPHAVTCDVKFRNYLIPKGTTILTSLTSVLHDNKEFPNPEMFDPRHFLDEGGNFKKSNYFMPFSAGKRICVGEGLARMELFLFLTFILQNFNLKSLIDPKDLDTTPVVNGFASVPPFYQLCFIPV
Flt-3 kinase, sequence (P36888 27-993): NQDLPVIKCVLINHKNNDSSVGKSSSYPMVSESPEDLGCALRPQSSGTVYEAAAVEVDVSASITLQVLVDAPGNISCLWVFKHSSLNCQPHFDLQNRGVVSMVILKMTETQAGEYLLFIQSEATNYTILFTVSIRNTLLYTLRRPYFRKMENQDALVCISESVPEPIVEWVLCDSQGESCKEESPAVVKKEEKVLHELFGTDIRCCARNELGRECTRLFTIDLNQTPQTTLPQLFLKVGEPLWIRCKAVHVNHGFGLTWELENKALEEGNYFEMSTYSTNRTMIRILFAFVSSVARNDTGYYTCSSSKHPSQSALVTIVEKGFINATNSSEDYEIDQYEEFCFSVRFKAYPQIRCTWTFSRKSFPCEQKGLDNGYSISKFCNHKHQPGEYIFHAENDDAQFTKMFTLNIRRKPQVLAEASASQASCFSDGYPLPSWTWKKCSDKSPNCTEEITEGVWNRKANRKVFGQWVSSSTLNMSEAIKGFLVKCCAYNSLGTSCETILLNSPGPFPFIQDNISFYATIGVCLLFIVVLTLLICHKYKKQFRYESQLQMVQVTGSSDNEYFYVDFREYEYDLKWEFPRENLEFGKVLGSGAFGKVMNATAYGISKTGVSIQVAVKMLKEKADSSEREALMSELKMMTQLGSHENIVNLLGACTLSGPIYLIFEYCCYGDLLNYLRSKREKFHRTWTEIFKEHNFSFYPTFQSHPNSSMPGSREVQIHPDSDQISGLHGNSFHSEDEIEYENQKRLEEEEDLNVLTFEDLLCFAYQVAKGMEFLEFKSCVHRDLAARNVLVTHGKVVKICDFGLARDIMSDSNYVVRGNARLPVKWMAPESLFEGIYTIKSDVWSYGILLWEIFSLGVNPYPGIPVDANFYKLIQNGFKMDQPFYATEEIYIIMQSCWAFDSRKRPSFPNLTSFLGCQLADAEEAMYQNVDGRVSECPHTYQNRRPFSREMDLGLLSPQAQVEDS
CYP2C9, sequence (P11712 whole entry): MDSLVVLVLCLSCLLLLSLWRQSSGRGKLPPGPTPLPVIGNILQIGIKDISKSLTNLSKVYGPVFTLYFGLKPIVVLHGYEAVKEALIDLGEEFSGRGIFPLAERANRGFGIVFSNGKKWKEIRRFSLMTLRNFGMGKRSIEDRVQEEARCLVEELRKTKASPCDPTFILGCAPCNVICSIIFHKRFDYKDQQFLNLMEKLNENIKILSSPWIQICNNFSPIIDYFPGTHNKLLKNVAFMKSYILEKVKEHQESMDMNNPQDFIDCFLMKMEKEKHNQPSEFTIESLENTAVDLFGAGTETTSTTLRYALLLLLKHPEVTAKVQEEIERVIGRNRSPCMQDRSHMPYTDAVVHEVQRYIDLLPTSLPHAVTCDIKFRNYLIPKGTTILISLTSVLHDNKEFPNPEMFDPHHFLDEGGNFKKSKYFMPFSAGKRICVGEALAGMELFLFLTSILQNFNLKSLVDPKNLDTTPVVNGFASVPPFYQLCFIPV
CYP2D6, sequence (P10635 whole entry): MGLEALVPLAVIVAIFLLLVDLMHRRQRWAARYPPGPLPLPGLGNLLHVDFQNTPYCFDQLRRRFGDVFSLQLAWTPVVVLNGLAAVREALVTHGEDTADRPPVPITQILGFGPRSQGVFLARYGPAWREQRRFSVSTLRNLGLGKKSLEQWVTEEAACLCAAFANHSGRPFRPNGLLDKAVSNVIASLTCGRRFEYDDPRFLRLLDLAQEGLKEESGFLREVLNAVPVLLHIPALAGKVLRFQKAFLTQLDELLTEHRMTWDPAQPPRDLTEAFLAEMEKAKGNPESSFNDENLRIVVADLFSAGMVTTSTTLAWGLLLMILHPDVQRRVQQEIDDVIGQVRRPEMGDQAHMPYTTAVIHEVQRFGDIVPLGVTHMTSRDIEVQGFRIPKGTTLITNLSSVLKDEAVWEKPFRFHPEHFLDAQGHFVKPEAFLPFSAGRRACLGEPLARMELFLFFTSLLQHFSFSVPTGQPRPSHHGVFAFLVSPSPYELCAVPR

Structure (SMILES) | IC50 (Flt-3 kinase) | IC50 (CYP1A2; read-out: Cyp IC50 (μM) 1A2) | IC50 (CYP2C19) | IC50 (CYP2C9; read-out: Cyp IC50 (μM) 2C9) | IC50 (CYP2D6) | IC50 (CYP3A4(BFC); [1]) | IC50 (CYP3A4(BQ)) | IC50 (CYP1A2; human, 15 min) | IC50 (CYP2C9; human, CYP2C9 enzyme (BD Biosciences), 45 min) | IC50 (CYP2D6; read-out: Cyp IC50 (μM) 2D6) | IC50 (CYP3A4(BQ); [2]) | IC50 (CYP2C19; read-out: Cyp IC50 (μM) 2C19) | IC50 (CYP3A4(BFC)) | IC50 (CYP2C9)
Fc1ccc(CNc2ccc(Cc3c[nH]c4ncc(Cl)cc34)cn2)cn1 [Compound P-2004, [5-(5-chloro-1H-pyrrolo[2,3-b]pyridin-3-ylmethyl)-pyridin-2-yl]-(6-fluoro-pyridin-3-ylmethyl)-amine] | < 0.1 µM | > 10 µM | 5 to 10 µM | < 5 µM | 5 to 10 µM | < 5 µM | 5 to 10 µM |  |  |  |  |  |  | 
Cc1cnc2[nH]cc(Cc3ccc(NCc4ccc(C(F)(F)F)nc4)nc3)c2c1 [Compound P-2019, [5-(5-Methyl-1H-pyrrolo[2,3-b]pyridin-3-ylmethyl)-pyridin-2-yl]-(6-trifluoromethyl-pyridin-3-ylmethyl)-amine] | < 0.1 µM |  | 5 to 10 µM |  |  | < 5 µM |  | > 10 µM | < 5 µM | < 5 µM | > 10 µM |  |  | 
COc1ccc(CNc2ccc(Cc3c[nH]c4ncc(C)cc34)c(F)n2)cn1 [Compound P-2029, [6-Fluoro-5-(5-methyl-1H-pyrrolo[2,3-b]pyridin-3-ylmethyl)-pyridin-2-yl]-(6-methoxy-pyridin-3-ylmethyl)-amine] | < 0.1 µM |  |  | < 5 µM |  |  | 5 to 10 µM | > 10 µM |  | > 10 µM |  | < 5 µM | 5 to 10 µM | 
COc1cnc2[nH]cc(Cc3ccc(NCc4ccc(OC)nc4)nc3F)c2c1 [Compound P-2030, [6-Fluoro-5-(5-methoxy-1H-pyrrolo[2,3-b]pyridin-3-ylmethyl)-pyridin-2-yl]-(6-methoxy-pyridin-3-ylmethyl)-amine] | < 0.1 µM |  |  | < 5 µM |  |  |  | > 10 µM |  | > 10 µM | > 10 µM | < 5 µM | 5 to 10 µM | 
COc1ccnc2[nH]cc(Cc3ccc(NCc4ccc(Cl)cc4)nc3F)c12 [Compound P-2037, (4-Chloro-benzyl)-[6-fluoro-5-(4-methoxy-1H-pyrrolo[2,3-b]pyridin-3-ylmethyl)-pyridin-2-yl]-amine] | < 0.1 µM |  |  | < 5 µM |  |  |  | > 10 µM |  | > 10 µM | > 10 µM | < 5 µM | 5 to 10 µM | 
COc1ccc(CNc2ncc(Cc3c[nH]c4ncc(C)cc34)cn2)cn1 [Compound P-2057, (6-Methoxy-pyridin-3-ylmethyl)-[5-(5-methyl-1H-pyrrolo[2,3-b]pyridin-3-ylmethyl)-pyrimidin-2-yl]-amine] | < 0.1 µM |  | 5 to 10 µM |  |  | > 10 µM |  | > 10 µM |  | > 10 µM | > 10 µM |  |  | 5 to 10 µM
COc1ncc(CNc2ccc(Cc3c[nH]c4ncc(Cl)cc34)c(F)n2)cc1F [Compound P-2165, [5-(5-Chloro-1H-pyrrolo[2,3-b]pyridin-3-ylmethyl)-6-fluoro-pyridin-2-yl]-(5-fluoro-6-methoxy-pyridin-3-ylmethyl)-amine] | < 0.1 µM |  |  | > 10 µM |  | > 10 µM |  | > 10 µM |  | > 10 µM | > 10 µM | > 10 µM |  | 
